According to patent US12306176B2, “Microfluidic bi-directional migration assay” (Ohio State Innovation Foundation, priority 2017, dated 2025):

Legend:
MDA-MB-231 cells [1] = experiment: Microfluidic bi-directional migration (MBDM) assay, mean migration speed and persistence; format: cell-based, human
Excerpt: To quantify the effects of iEF treatment on directed cell migration speed and persistence, a custom microfluidic bi-directional microtrack (MBDM) assay was developed that enables real-time monitoring with time-lapse microscopy of cell motility.
In this study, the EF sensing mechanisms of breast cancer cells in response to asymmetric iEFs (<100 μV/cm) was investigated. Using a MBDM assay, changes in the speed and persistence of spontaneously migrating MDA-MB-231 breast cancer cells were observed. This cell type was selected for these studies because it is a putative metastatic breast cancer cell line that is also responsive to gradients of a chemoattractant such as EGF (Wang S J, et al. (2004) Exp Cell Res 300 (1):180-189; Wu A, et al. (2013) Proc Natl Acad Sci U S A 110(40):16103-16108). […] This configuration enables direct comparison of cell movement in response to iEFs applied primarily with the direction of cell migration (“parallel”) or against the direction of cell migration (“anti-parallel”) within the same microfluidic device. Here, the field direction is defined as the direction that has the higher peak magnitude, as well as higher time-average field strength.
To calculate persistence, the following protocol was followed for each cell tracked in a microtrack of the MBDM assay. A cell starts at position Pt at time t. After a single time increment, dt, the cell moves to a new position, Pt+dt. The distance traveled during this time is the absolute difference in the two positions denoted as Li: Li=|Pt+dt−Pt|
The total distance traveled is then the sum of all distances traveled during N time increments denoted as Lt. Additionally, the total time of travel is the number of time increments multiplied by the size of the time increments denoted as Tt.
The displacement is simply the difference between the final and initial position: Ld=|PFinal−PInitial|
The MBDM assay was designed to have three ports separated by 700 μm long arrays of parallel microtracks (FIG. 1D). The dimension of each port was 50 mm×15 mm. Cells were seeded in the center port and the top and bottom ports were designated as cell collection port and/or chemokine source reservoir port depending on the experimental condition. Microchannels were designed to have a square cross-section of 20 μm×20 μm. The cross-section dimensions were on the same order as the size of single cells and mimic the dimensions of pre-existing microtracks available to cells in-vivo (Kraning-Rush C M, et al. (2013) lntegr Biol (Camb). 5 (3):606-616). Moreover, these migratory tracks are representative of physiologically relevant matrix metalloproteinase independent cancer-cell migration mode during metastasis (Friedl P & Alexander S (2011) Cell 147 (5):992-1009; Wolf K, et al. (2009) Semin Cell Dev Biol. 20 (8):931-941; Friedl P & Wolf K (2003) Nat Rev Cancer. 3 (5):362; Wolf K, et al. (2007) Nat Cell Biol. 9 (8):893; Wolf K, et al. (2003) J Cell Biol. 160 (2):267-277). The bi-directional design of this assay allows cells to migrate in either direction from the seeding port and provides a better understanding and quantification of the directional bias of external cues such as chemokine gradients and the directional effects of applied iEFs. The large ports for cell seeding ensure uniform seeding density, excellent cell viability, and repeatability.
Cells were washed in culture plates with 1×PBS solution, treated with 0.05% trypsin-EDTA solution (Sigma-Aldrich), and then counted using a hemocytometer. Cells (2×10^5) suspended in migration media were seeded in the middle port (seeding port) with an extremely small flow from the collection ports to the seeding port, which equilibrated in less than 15 minutes. The cells inside the devices were then incubated for 12 hours in migration media following which the media was aspirated and replaced with new media based on the experimental conditions. […]

MDA-MB-231 cells [2] = experiment: Modified transwell migration assay; format: cell-based, human; conditions: EGF 100 ng/mL in bottom chamber, 8 hours
Excerpt: In addition to the MBDM assay, the modified transwell migration assay (Ahirwar D K, et al. (2015) Sci Rep 5:11005.) was used to determine the effects of standalone iEF treatment on number of cells migrated to complement the speed and persistence data obtained from the MBDM assay. iEF treatment alone had no significant effect (neither stimulatory nor inhibitory) on the total number of MDA-MB-231 cells that spontaneously migrated across the transwell membrane (˜10 μm thick) compared to the untreated control (FIG. 8). These outcomes occurred for both anti-parallel and parallel directions of iEF application.
Transwell permeable supports that have 6.5 mm diameter inserts of polycarbonate membrane with 8 μm diameter pore size (Corning, CLS3422) were used in the experiments reported here. […] Cell migration numbers were then quantified using a custom MATLAB script as described in Image Acquisition and Processing. […]
Images from experiments with the transwell migration assays were taken using a stereo microscope (Leica Microsystems Inc.) after fixation and staining of the cells using the HEMA 3 solution kit (Fisher Scientific). […] The images were then imported into MATLAB and analyzed using a custom code (MATLAB script). […] The average area of a cell was determined from the mean of manual measurements of approximately 20 isolated cells for each case. […]

epidermal growth factor [EGF]
mean migration speed (MDA-MB-231 cells [1]; EGF gradient (25 ng/mL) alone, no iEF, no inhibitor): 0.43 μm/min | average persistence (MDA-MB-231 cells [1]; stable EGF gradient alone): 0.84 | increase of persistence compared to untreated control (MDA-MB-231 cells [1]; stable EGF gradient alone): 6% | mean migration speed compared to untreated controls (MDA-MB-231 cells [1]; stable EGF gradient alone): increased significantly | transmigration compared to untreated controls (MDA-MB-231 cells [2]): significantly promoted
